Patent publication US10760052B2, “Method of inhibiting tau phosphorylation” (priority 2012, dated 2020)

Target: T1, mu opiate receptor (MOR) (Rattus norvegicus, UniProt P33535)
T1 construct: from tissue; host or cells: striatum (membrane preparation)
Assay type: biochemical
Conditions: for Concentration of FLNA-Binding Compound as Agonist 0.1 μM / Concentration of FLNA-Binding Compound as Agonist 1 μM / Concentration of FLNA-Binding Compound as Agonist 1 μM + BFNA: [35S]GTPγS binding to Gαo in striatal membranes; for Concentration of FLNA-Binding Compound as Agonist 0.1 μM: compound 0.1 μM; for Concentration of FLNA-Binding Compound as Agonist 1 μM: compound 1 μM; for Concentration of FLNA-Binding Compound as Agonist 1 μM + BFNA: compound 1 μM plus 1 μM β-funaltrexamine (MOR antagonist)

T1 sequence (P33535 whole entry): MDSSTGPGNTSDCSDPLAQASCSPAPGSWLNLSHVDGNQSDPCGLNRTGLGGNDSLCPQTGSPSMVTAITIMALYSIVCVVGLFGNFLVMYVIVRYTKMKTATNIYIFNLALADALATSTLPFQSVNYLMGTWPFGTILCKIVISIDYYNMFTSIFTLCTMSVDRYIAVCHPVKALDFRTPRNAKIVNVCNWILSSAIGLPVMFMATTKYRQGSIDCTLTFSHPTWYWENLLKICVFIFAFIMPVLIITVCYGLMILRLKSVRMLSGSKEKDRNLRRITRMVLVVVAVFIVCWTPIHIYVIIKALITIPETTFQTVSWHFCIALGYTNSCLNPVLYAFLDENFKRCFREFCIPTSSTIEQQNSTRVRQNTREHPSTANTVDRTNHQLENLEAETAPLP

| SMILES | % DAMGO (0.1 μM) [%] | % DAMGO (1 μM) [%] | % DAMGO + BFNA [%] | Concentration of FLNA-Binding Compound as Agonist 0.1 μM [%] | Concentration of FLNA-Binding Compound as Agonist 1 μM [%] | Concentration of FLNA-Binding Compound as Agonist 1 μM + BFNA [%] | [35S]GTPγS binding, FLNA-Binding Compound as Agonist at 0.1 μM [%] | [35S]GTPγS binding, FLNA-Binding Compound as Agonist at 1 μM [%] | [35S]GTPγS binding, FLNA-Binding Compound as Agonist at 1 μM + BFNA [%] |
| --- | --- | --- | --- | --- | --- | --- | --- | --- | --- |
| CC1CN(CC(O)COc2ccccc2)CC(C)O1 (stereo not drawn) [Compound A0025] | 33.2 | 54.5 | 198.5 | 58.6 | 138.7 | 52.2 |  |  |  |
| CC(=O)c1ccc(S(=O)(=O)N2CC(=O)NC23CCNCC3)cc1 [Compound C0086M] | 117.5 | 104.9 | 692.3 |  |  |  | 206.8 | 265.3 | 152.3 |
| CC1CCC(C(C)C)C(OCC(O)CN2CCN(CCN3CCCCC3)CC2)C1 (stereo not drawn) [Compound A0031] | 100.9 | 116.8 | 573.8 | 178.2 | 297.0 | 150.9 |  |  |  |
| O=C(c1ccc([N+](=O)[O-])cc1)N1CCC2(CC1)OCCN2S(=O)(=O)c1ccc([N+](=O)[O-])cc1 [Compound C0022] | 113.5 | 123.2 | 25.7 | 194.3 | 328.7 | 13.4 |  |  |  |
| COc1c2c(cc3c1C(CC(=O)Cc1ccc(C#N)cc1)[N+](C)(C)CC3)OCO2 (stereo not drawn) [Compound B0012] | 97.8 | 79.4 | 278.5 | 167.4 | 212.0 | 145.1 |  |  |  |
| COc1c2c(cc3c1OCO3)CCN(CC(O)COC1CC(C)CCC1C(C)C)C2 (stereo not drawn) [Compound A0061] | 70.7 | 85.5 | 26.8 | 110.3 | 197.1 | 10.7 |  |  |  |
| COCOc1ccc(C(=O)CC2c3c(cc4c(c3OC)OCO4)CC[N+]2(C)C)cc1C (stereo not drawn) [Compound B0041] | 39.3 | 47.2 | 128.5 | 61.6 | 109.3 | 41.9 |  |  |  |
| O=S(=O)(c1ccc(Br)cc1Br)N1CCC2(CC1)OCCN2S(=O)(=O)c1ccc(Br)cc1Br [Compound C0070] | 96.2 | 95.9 | 331.0 | 165.6 | 210.8 | 114.2 |  |  |  |
| Cc1cccc(OCC(O)CN2CC(C)OC(C)C2)c1 (stereo not drawn) [Compound A0030] | 75.5 | 113.2 | 628.1 | 133.4 | 287.8 | 165.2 |  |  |  |
| CC(=O)c1ccc(C(=O)N2CCC3(CC2)OCCN3S(=O)(=O)c2ccc(C(C)=O)cc2)cc1 [Compound C0052] | 74.8 | 69.9 | 97.0 | 108.4 | 162.8 | 42.7 |  |  |  |
| CC1CN(CC(O)COc2cc(F)cc(F)c2)CC(C)O1 (stereo not drawn) [Compound A0046] | 131.2 | 128.3 | 189.4 | 257.5 | 354.1 | 140.0 |  |  |  |
| O=S(=O)(c1ccc(OC(F)(F)F)cc1)N1CCC2(CC1)OCCN2S(=O)(=O)c1ccc(OC(F)(F)F)cc1 [Compound C0006] | 70.6 | 73.8 | 7.2 | 121.5 | 204.0 | 4.6 |  |  |  |
| COc1cccc(CCC(=O)CC2c3c(cc4c(c3OC)OCO4)CC[N+]2(C)C)c1 (stereo not drawn) [Compound B0034] | 71.6 | 88.1 | 80.2 | 122.5 | 235.2 | 41.8 |  |  |  |
| Nc1ccc(C(=O)N2CCC3(CC2)OCCN3S(=O)(=O)c2ccc(N)cc2)cc1 [Compound C0023] | 89.5 | 87.6 | 44.5 | 153.2 | 233.7 | 23.2 |  |  |  |
